# Source: ChEMBL document CHEMBL4196203, “BACE1 Inhibitory Meroterpenoids from Aspergillus terreus” (J Nat Prod, 2018)
# Target: Beta-secretase 1 (Homo sapiens, UniProt P56817)
# Experiment: Inhibition of human BACE1 using MOCA-SEV-NL-DAEFR-DNP-RR as substrate measured after 2 hrs by FRET assay
# Beta-secretase 1, sequence (P56817 whole entry): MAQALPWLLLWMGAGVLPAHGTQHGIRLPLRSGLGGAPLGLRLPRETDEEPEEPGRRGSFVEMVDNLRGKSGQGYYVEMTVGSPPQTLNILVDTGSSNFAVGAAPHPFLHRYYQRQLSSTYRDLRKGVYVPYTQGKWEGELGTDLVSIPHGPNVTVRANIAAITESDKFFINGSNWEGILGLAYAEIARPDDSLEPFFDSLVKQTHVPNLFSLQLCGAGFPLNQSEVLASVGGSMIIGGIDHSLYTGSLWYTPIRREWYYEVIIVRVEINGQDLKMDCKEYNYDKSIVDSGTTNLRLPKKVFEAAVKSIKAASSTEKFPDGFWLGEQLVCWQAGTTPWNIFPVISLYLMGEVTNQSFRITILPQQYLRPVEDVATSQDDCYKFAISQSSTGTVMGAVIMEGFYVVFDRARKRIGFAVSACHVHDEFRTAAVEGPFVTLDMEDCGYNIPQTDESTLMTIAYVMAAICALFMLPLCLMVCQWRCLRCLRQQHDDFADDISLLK
row,SMILES,IC50 [µM]
1,C=C1C[C@H]2[C@]3(C)CCC(=O)C(C)(C)[C@H]3C(=O)[C@@H](O)[C@]2(C)[C@@H]2C(=O)O[C@](C)(C(=O)OC)C(=O)[C@]12C,> 50
2,C=C1C[C@H]2[C@]3(C)CCC(=O)C(C)(C)[C@@H]3C(=O)[C@@H](O)[C@]2(C)[C@H]2C(=O)O[C@](C)(C(=O)OC)C(=O)[C@]12C,3.32
3,C=C1C[C@H]2[C@]3(C)CCC(=O)C(C)(C)[C@@H]3C(=O)[C@@H](O)[C@]2(C)[C@H]2C(=O)O[C@@H](C)C(=O)[C@]12C,5.85
4,C=C1C[C@@H]2[C@](C)(C(=O)C(O)=C3C(C)(C)C(=O)CC[C@]32C)[C@H]2C(=O)O[C@](C)(C(=O)OC)C(=O)[C@]12C,> 50
5,C=C1C[C@H]2[C@]3(C)CCC(=O)C(C)(C)[C@H]3C(=O)[C@@H](O)[C@]2(C)[C@H]2C(=O)O[C@@H](C)C(=O)[C@]12C,> 50
6,C=C1C[C@H]2[C@]3(C)CCC(=O)C(C)(C)[C@H]3CC[C@]2(C)[C@]2(C(=O)OC)C(=O)[C@@](C)(O)C(=O)[C@]12C,> 50
7,C=C1C[C@H]2[C@]3(C)CCC(=O)C(C)(C)[C@H]3C(=O)[C@@H](O)[C@]2(C)[C@H]2C(=O)O[C@](C)(C(=O)OC)C(=O)[C@]12C,> 50
8,C=C1C[C@@]2(O)[C@]3(C)CCC(=O)C(C)(C)C3=C(O)C(=O)[C@]2(C)[C@H]2C(=O)O[C@](C)(C(=O)OC)C(=O)[C@]12C,> 50
9,C=C1C[C@H]2[C@]3(C)CC[C@@H](O)C(C)(C)[C@H]3C(=O)[C@@H](O)[C@]2(C)[C@@H](C(=O)OC)[C@]1(C)C(=O)[C@](C)(O)C(=O)OC,> 50

# Continued, values first:
row,IC50 [µM],SMILES
1,> 50,C=C1[C@@H]2O[C@@]23[C@]2(C)CCC(=O)C(C)(C)C2=C(O)C(=O)[C@]3(C)[C@H]2C(=O)O[C@](C)(C(=O)OC)C(=O)[C@]12C
2,> 50,C=C1C[C@@H]2[C@](C)(C(=O)C(O)=C3C(C)(C)C(=O)CC[C@]32C)[C@@H](C(=O)OC)[C@]1(C)C(=O)[C@](C)(O)C(=O)OC
3,> 50,C=C1C[C@H]2[C@]3(C)CCC(=O)C(C)(C)[C@H]3C(=O)C[C@]2(C)[C@@H](C(=O)OC)[C@]1(C)C(=O)[C@](C)(O)C(=O)OC
4,31.7,C=C1C[C@H]2[C@]3(C)CCC(=O)C(C)(C)[C@@H]3C(=O)[C@@H](O)[C@]2(C)[C@@H](C(=O)OC)[C@]1(C)C(=O)[C@](C)(O)C(=O)OC
5,> 50,C=C1C[C@H]2[C@]3(C)CCC(=O)C(C)(C)[C@H]3C(=O)[C@@H](O)[C@]2(C)[C@@H](C(=O)OC)[C@]1(C)C(=O)[C@](C)(O)C(=O)OC
6,> 50,C=C1C[C@H]2[C@]3(C)CCC(=O)C(C)(C)[C@H]3C(=O)[C@@H](O)[C@]2(C)[C@H]2C(=O)O[C@](C)(C(=O)OCC)C(=O)[C@]12C
7,> 50,C=C1C[C@H]2[C@]3(C)CCC(=O)C(C)(C)[C@H]3C(=O)C[C@]2(C)[C@]2(C(=O)OC)C(=O)[C@H](C)OC(=O)[C@]12C
